The values below are quoted from earlier work in US5908764A, “Methods and compositions for increasing production of erythromycin” (Solidago AG, priority 1997, dated 1999).

The target of series [1] is Vitreoscilla hemoglobin (VHb) (Vitreoscilla stercoraria, UniProt P04252). Particulars: koff rate for oxygen; Orii and Webster, 1986.
Series [2] deals with horse heart myoglobin (Equus caballus, UniProt P68082). Particulars: oxygen affinity; Wittenberg et al., 1985.
Sequence of horse heart myoglobin (P68082 whole entry): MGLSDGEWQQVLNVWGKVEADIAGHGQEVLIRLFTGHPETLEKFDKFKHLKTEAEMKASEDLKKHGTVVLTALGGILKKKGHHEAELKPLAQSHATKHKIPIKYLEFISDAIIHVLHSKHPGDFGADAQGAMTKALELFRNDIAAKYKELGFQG

Broadly, the koff is the first-order rate constant of dissociation. For orientation: Kd means the concentration at which binding is half-saturated. Take `O=O` [oxygen]: the koff in series [1] is 5600 s⁻¹. Further, in series [2], the Kd was 790 nM.
